What was measured:
[1] = tested on: OVCAR-4 (Ovarian Carcinoma); experiment: combination Emax (second highest fraction inhibited in the dose matrix, 72 h); higher = more inhibition; extreme values may be limits of the assay
Summary of the method: (§1)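 Cell lines in DMEM/F12 or RPMI with 10% FBS were plated in 1536-well plates, held 24 hours at 37°C, 5% CO2, then given two-drug dose matrices for 72 hours (DMSO typically 0.2%). Viability was read by CellTiter-Glo 2.0 luminescence and scaled as inhibition from 0 (vehicle wells) to 1 (blank wells). Combination Emax is the second-highest inhibition in the matrix; Bliss excess is observed combination effect minus expected EA + EB − EA·EB, EA and EB being single-agent effects.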

[2] = tested on: NCI-H358 (Lung Adenocarcinoma); experiment: as above
Summary of the method: as §1

[3] = tested on: EFM-19 (Breast Carcinoma); experiment: as above
Summary of the method: as §1

[4] = tested on: BT-549 (Breast Carcinoma); experiment: as above
Summary of the method: as §1

TK10 (Kidney Carcinoma) = experiment: as above
Summary of the method: as §1

[5] = tested on: OE19 (Esophageal Adenocarcinoma); experiment: as above
Summary of the method: as §1

[6] = tested on: Hs-766T (Pancreatic Carcinoma); experiment: as above
Summary of the method: as §1

UACC-62 (Melanoma) = experiment: as above
Summary of the method: as §1

[7] = tested on: MLMA (Other Blood Carcinomas); experiment: as above
Summary of the method: as §1

[8] = tested on: KMOE-2 (Acute Myeloid Leukemia); experiment: as above
Summary of the method: as §1

D-263MG (Glioblastoma) = experiment: as above
Summary of the method: as §1

[9] = tested on: SW13 (Other Solid Carcinomas); experiment: as above
Summary of the method: as §1

[10] = tested on: C-4-I (Cervical Carcinoma); experiment: as above
Summary of the method: as §1

[11] = tested on: SCC-15 (Oral Cavity Carcinoma); experiment: as above
Summary of the method: as §1

[12] = tested on: EoL-1-cell (Acute Myeloid Leukemia); experiment: as above
Summary of the method: as §1

[13] = tested on: TE-1 (Esophageal Squamous Cell Carcinoma); experiment: as above
Summary of the method: as §1

[14] = tested on: NCI-H727 (Other Solid Carcinomas); experiment: as above
Summary of the method: as §1

[15] = tested on: SU8686 (Pancreatic Carcinoma); experiment: as above
Summary of the method: as §1

[16] = tested on: AMO-1 (Plasma Cell Myeloma); experiment: as above
Summary of the method: as §1

[17] = tested on: Caov-4 (Ovarian Carcinoma); experiment: Bliss excess, mean over the matrix (fraction); higher = more synergy;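 also: after 72 h of two-drug dosing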
Summary of the method: as §1

| Compound | combination Emax [1] | combination Emax [2] | combination Emax [3] | combination Emax [4] | combination Emax (TK10 (Kidney Carcinoma)) | combination Emax [5] | combination Emax [6] | combination Emax (UACC-62 (Melanoma)) | combination Emax [7] | combination Emax [8] | combination Emax (D-263MG (Glioblastoma)) | combination Emax [9] | combination Emax [10] | combination Emax [11] | combination Emax [12] | combination Emax [13] | combination Emax [14] | combination Emax [15] | combination Emax [16] | Bliss excess [17] |
| --- | --- | --- | --- | --- | --- | --- | --- | --- | --- | --- | --- | --- | --- | --- | --- | --- | --- | --- | --- | --- |
| COc1nnc2ccc(N3CCC(c4ccc(OCCN5CCN(C)C(=O)[C@H]5C)cc4)CC3)nn12 [AZD5153] + Cn1cnc2c(F)c(Nc3ccc(Br)cc3Cl)c(C(=O)NOCCO)cc21 [Selumetinib] (first compound max 1 µM, 7x7, partner max 10 µM) | 0.492 | 0.589 | 0.28 | 0.518 | 0.604 | 0.631 | 0.589 | 0.947 | 0.906 | 1 | 0.441 | 0.593 | 0.883 | 0.584 | 1 | 0.601 | 0.678 | 0.241 | 0.928 | -0.053 |
| Cc1c2c(nn1C)CSCc1cc(n(C)n1)CSc1cc(c3ccccc3c1)OCCCc1c(C(=O)O)n(C)c3c-2c(Cl)ccc13 [AZD5991] + C1CN(CCC1(C(=O)N[C@@H](CCO)C2=CC=C(C=C2)Cl)N)C3=NC=NC4=C3C=CN4 [Capivasertib] (first compound max 1 µM, 7x7, partner max 3 µM) | 0.18 | 0.243 | 0.629 | 0.432 | 0.257 | 0.442 | 0.23 | 0.934 | 0.407 | 0.793 | 0.958 | 0.967 | 1 | 0.207 | 1 | 0.553 | 0.374 | 0.129 | 1 | 0.0354 |
| Cc1c2c(nn1C)CSCc1cc(n(C)n1)CSc1cc(c3ccccc3c1)OCCCc1c(C(=O)O)n(C)c3c-2c(Cl)ccc13 [AZD5991] + C=CCn1c(=O)c2cnc(Nc3ccc(N4CCN(C)CC4)cc3)nc2n1-c1cccc(C(C)(C)O)n1 [AZD1775] (first compound max 1 µM, partner max 1 µM) | 0.742 | 0.649 | 0.778 | 0.811 | 0.498 | 0.722 | 0.496 | 0.901 | 0.952 | 0.992 | 0.758 | 0.881 | 1 | 0.437 | 1 | 0.89 | 0.358 | 0.33 | 1 | -0.0345 |
| Cc1c2c(nn1C)CSCc1cc(n(C)n1)CSc1cc(c3ccccc3c1)OCCCc1c(C(=O)O)n(C)c3c-2c(Cl)ccc13 [AZD5991] + CC1(C)CCC(CN2CCN(c3ccc(C(=O)NS(=O)(=O)c4ccc(NCC5CCOCC5)c([N+](=O)[O-])c4)c(Oc4cnc5[nH]ccc5c4)c3)CC2)=C(c2ccc(Cl)cc2)C1 [Venetoclax] (first compound max 1 µM, 7x7, partner max 1 µM) | 0.188 | 0.217 | 0.624 | 0.45 | 0.208 | 0.457 | 0.184 | 0.962 | 0.248 | 0.709 | 0.863 | 0.927 | 0.976 | 0.236 | 1 | 0.65 | 0.258 | 0.0608 | 1 | -0.0137 |
| Cc1c2c(nn1C)CSCc1cc(n(C)n1)CSc1cc(c3ccccc3c1)OCCCc1c(C(=O)O)n(C)c3c-2c(Cl)ccc13 [AZD5991] + CCN(CCO)CCCOc1ccc2c(Nc3cc(CC(=O)Nc4cccc(F)c4)[nH]n3)ncnc2c1 [AZD2811] (first compound max 1 µM, 7x7, partner max 1 µM) | 0.506 | 0.403 | 0.783 | 0.575 | 0.228 | 0.937 | 0.346 | 0.887 | 0.245 | 0.759 | 0.994 | 0.964 | 1 | 0.307 | 1 | 0.676 | 0.286 | 0.172 | 1 | 0.0337 |
| Cc1c2c(nn1C)CSCc1cc(n(C)n1)CSc1cc(c3ccccc3c1)OCCCc1c(C(=O)O)n(C)c3c-2c(Cl)ccc13 [AZD5991] + CN(C)CCCOc1ccc(-c2ccc3ncc4c(c3c2)n(C2CCOCC2)c(=O)n4C)cn1 [AZD0156] (first compound max 1 µM, 7x7, partner max 1 µM) | 0.279 | 0.308 | 0.494 | 0.334 | 0.272 | 0.573 | 0.372 | 0.812 | 0.397 | 0.797 | 0.711 | 0.828 | 1 | 0.269 | 0.999 | 0.635 | 0.289 | 0.16 | 1 | -0.0035 |

— the supplement of paper PMC11061612
